The text below walks through data of patent US20110318393A1, “Substituted Pyrazole Compounds” (MIIKANA THERAPEUTICS, INC., priority 2008, published 2011).

Type in all cases: biochemical
The target in assay [1] is T1, N-terminal His-tagged human Src (Homo sapiens, UniProt P12931).
T1 construct: His (N); purchased Upstate USA Inc, Charlottesville, Va
Kind of assay: Src kinase inhibition assay (33P-ATP filter assay). To be noted: 40 minutes, room temperature; less than or equal to 100 nM. As to the method:
(§1) Compounds were assayed for Src kinase inhibitory activity using N-terminal His-tagged human Src (Upstate USA Inc, 706 Forest Street, Charlottesville, Va.). Serial dilutions of compound were assayed in a final reaction volume of 25 μL by incubating a solution of the above Src kinase (5-10 mU), 8 mM MOPS (3-(N-morpholino)propanesulfonic acid) pH 7.0, 0.2 mM EDTA (ethylenediamine tetracetic acid), 250 μM amino acid sequence KVEKIGEGTYGVVYK (Upstate USA Inc, 706 Forest Street, Charlottesville, Va.), and 10 mM magnesium acetate and [γ-^33P-ATP] (specific activity of about 500 cpm/pmol, concentration as required). The reaction was initiated by the addition of the magnesium acetate and [γ-^33P-ATP] mixture. After incubation for 40 minutes at room temperature, the reaction was stopped by the addition of 5 μL of a 3% phosphoric acid solution. A 10 μL aliquote of the reaction was then spotted onto a P30 filtermat (PerkinElmer, Wellesley, Mass.) and washed three times for five minutes in 75 mM phosphoric acid and once in methanol prior to drying and scintillation counting. Inhibition of Src activity was determined by comparison to assays that contained no inhibitor.

The target in assay [2] is T2, N-terminal His6-tagged recombinant human KDR, residues 790-end (Homo sapiens, UniProt P35968).
T2 construct: recombinant human KDR, residues 790-end; His6 (N); purchased Upstate USA Inc, Charlottesville, Va
Briefly: KDR kinase inhibition assay (33P-ATP filter assay). Conditions: 40 minutes, room temperature; less than or equal to 100 nM. As for the experimental part:
as §1, with “for KDR” for “for Src”, “N-terminal His6-tagged recombinant” for “N-terminal His-tagged”, “human KDR, residues 790-end” for “human Src”, “above KDR” for “above Src”, “acid), 0.33 mg/mL myelin basic protein” for “acid), 250 μM amino acid sequence KVEKIGEGTYGVVYK”, “of KDR” for “of Src”

In assay [3] the target is T3, N-terminal GST-tagged recombinant human Flt3, residues 564-end (Homo sapiens, UniProt P36888).
T3 construct: recombinant human Flt3, residues 564-end; GST (N); purchased Upstate USA Inc, Charlottesville, Va
T3 sequence (P36888 564-993 limits assumed): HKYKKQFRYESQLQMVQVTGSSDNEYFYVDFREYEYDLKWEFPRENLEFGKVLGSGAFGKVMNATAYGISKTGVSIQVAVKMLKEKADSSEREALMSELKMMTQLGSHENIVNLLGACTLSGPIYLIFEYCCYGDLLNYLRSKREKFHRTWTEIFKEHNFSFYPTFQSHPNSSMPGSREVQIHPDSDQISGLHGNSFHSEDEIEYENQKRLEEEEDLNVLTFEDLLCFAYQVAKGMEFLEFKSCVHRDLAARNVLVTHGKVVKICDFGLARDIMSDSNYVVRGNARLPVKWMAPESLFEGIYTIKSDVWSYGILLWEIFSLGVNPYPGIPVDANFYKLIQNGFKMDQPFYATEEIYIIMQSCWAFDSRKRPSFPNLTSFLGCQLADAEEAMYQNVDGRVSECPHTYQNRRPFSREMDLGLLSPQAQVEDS
Kind of assay: Flt3 kinase inhibition assay (33P-ATP filter assay). To be noted: 40 minutes, room temperature; less than or equal to 100 nM. As for the experimental part:
Compounds were assayed for Flt3 kinase inhibitory activity using N-terminal GST-tagged recombinant human Flt3, residues 564-end (Upstate USA Inc, 706 Forest Street, Charlottesville, Va.). Serial dilutions of compound were assayed in a final reaction volume of 25 μL by incubating a solution of the above Flt3 kinase (5-10 mU), 8 mM MOPS (3-(N-morpholino)propanesulfonic acid) pH 7.0, 0.2 mM EDTA (ethylenediamine tetracetic acid), 50 μM amino acid sequence EAIYAAPFAKKK (Upstate USA Inc, 706 Forest Street, Charlottesville, Va.), and 10 mM magnesium acetate and [γ-^33P-ATP] (specific activity of about 500 cpm/pmol, concentration as required). The reaction was initiated by the addition of the magnesium acetate and [γ-^33P-ATP] mixture. After incubation for 40 minutes at room temperature, the reaction was stopped by the addition of 5 μL of a 3% phosphoric acid solution. A 10 μL aliquote of the reaction was then spotted onto a P30 filtermat (PerkinElmer, Wellesley, Mass.) and washed three times for five minutes in 75 mM phosphoric acid and once in methanol prior to drying and scintillation counting. Inhibition of Flt3 activity was determined by comparison to assays that contained no inhibitor.

A further assay concerns the target T4, recombinant Aurora A (Homo sapiens, UniProt O14965).
T4 construct: purchased Upstate, Lake Placid, N.Y
T4 sequence (O14965 1-403): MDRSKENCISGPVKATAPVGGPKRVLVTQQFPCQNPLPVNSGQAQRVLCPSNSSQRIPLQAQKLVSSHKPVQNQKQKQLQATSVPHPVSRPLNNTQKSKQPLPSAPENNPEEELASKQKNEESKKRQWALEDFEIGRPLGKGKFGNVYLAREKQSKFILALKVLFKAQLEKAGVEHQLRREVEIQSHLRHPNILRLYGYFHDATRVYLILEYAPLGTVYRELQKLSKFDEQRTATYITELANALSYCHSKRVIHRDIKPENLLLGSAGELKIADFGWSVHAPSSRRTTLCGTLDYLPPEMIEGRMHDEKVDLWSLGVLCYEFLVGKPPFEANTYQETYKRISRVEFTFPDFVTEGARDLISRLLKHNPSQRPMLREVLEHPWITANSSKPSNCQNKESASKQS
Briefly: Aurora A (Aurora 2) inhibition assay, Z'-Lyte kinase assay. Conditions: ATP 10 μM, 1 h; less than or equal to 100 nM. As to the method: Compounds were tested for their potency against recombinant Aurora A (Upstate, Lake Placid, N.Y.) using the PanVera Z′-Lyte kinase assay kit-Ser/Thr 1 peptide (Invitrogen, Carlsbad, Calif.). Assays were carried out in kinase assay buffer (50 mM HEPES, pH 7.5, 10 mM MgCl2, 5 mM EGTA, 0.05% Brij-35, 2 mM DTT). Test compounds were initially dissolved in DMSO at 100× the highest tested concentration, then serially diluted to 4× test concentrations in kinase assay buffer. Next, Aurora A (final concentration 200-500 ng/mL), Z′-Lyte Ser/Thr 1 peptide (final concentration 2 μM) and ATP (final concentration 10 μM) were added according to the manufacturer's instructions. Assays were carried out in half-area 96-well white polystyrene assay plates (Corning, Corning, N.Y.) in a final volume of 20 μl. The reaction was allowed to proceed for 1 h at room temperature in the dark, at which point the development reagent and stop reagent were added according to the manufacturer's instructions. Coumarin (Ex. 400 nm, Em. 465 nm) and fluorescein (Ex. 400 nm, Em. 565 nm) fluorescence values were measured on a SpectraFluor Plus plate reader (Tecan, Durham, N.C.). The emission ratio (coumarin/fluorescein) was determined and used to calculate the percent phosphorylation for each well. Wells containing substrate but no kinase and wells containing a phosphopeptide control were used to set 0% and 100% phosphorylation values, respectively. Typically 20-40% of the substrate was phosphorylated in wells without inhibitor. Dose-response curves of relative Aurora A activity vs. inhibitor concentration were plotted with Grafit (Erithacus Software, Horley, Surrey, UK).

Molecules are shown by their SMILES.

T1 sequence (P12931 whole entry): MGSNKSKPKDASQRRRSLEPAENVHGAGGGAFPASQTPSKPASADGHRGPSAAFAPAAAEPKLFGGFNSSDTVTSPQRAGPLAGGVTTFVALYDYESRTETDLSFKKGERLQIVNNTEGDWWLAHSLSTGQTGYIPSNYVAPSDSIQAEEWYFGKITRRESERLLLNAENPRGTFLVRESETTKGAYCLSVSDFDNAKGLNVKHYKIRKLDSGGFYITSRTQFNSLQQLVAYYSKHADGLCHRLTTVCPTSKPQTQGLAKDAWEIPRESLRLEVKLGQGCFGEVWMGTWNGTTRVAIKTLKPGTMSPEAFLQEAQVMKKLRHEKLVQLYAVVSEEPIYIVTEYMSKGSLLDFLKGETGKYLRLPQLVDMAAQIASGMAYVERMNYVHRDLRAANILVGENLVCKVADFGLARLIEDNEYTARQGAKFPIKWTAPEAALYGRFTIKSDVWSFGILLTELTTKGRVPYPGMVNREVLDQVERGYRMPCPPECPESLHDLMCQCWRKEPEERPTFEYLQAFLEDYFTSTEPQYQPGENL
T2 sequence (P35968 790-1356 limits assumed): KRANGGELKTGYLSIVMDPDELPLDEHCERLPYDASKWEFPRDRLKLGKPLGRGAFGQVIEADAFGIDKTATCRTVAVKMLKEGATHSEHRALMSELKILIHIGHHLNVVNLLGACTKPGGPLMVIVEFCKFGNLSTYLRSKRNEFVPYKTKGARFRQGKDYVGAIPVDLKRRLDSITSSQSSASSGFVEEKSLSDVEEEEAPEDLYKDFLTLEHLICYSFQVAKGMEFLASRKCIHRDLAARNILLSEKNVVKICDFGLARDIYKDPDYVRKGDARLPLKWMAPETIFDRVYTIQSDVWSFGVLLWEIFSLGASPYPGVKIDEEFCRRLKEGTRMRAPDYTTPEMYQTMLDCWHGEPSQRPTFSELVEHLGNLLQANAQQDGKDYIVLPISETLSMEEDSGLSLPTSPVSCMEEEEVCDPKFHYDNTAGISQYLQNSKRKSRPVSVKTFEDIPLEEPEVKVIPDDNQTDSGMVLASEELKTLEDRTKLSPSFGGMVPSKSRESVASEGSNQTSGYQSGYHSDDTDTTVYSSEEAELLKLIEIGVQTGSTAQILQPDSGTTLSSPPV

Broadly, the IC50 is the concentration at which inhibition is half-maximal. Regarding `COC1CCN(C2CN(c3cc(Nc4cc(C)[nH]n4)nc(/C=C/c4ccccc4)n3)C2)CC1` [Compound 1, (E)-6-(3-(4-methoxypiperidin-1-yl)azetidin-1-yl)-N-(5-methyl-1H-pyrazol-3-yl)-2-styrylpyrimidin-4-amine], the IC50 (in assay [1]; in assay [2]; in assay [3]; at recombinant Aurora A) was not above 100 nM throughout.

In the case of `Cc1cc(Nc2cc(N3CCC(N4CCCC4)CC3)nc(/C=C/c3ccccc3)n2)n[nH]1` [Compound 2, (E)-N-(5-methyl-1H-pyrazol-3-yl)-6-(4-(pyrrolidin-1-yl)piperidin-1-yl)-2-styrylpyrimidin-4-amine], the IC50 (in assay [1]; in assay [2]; in assay [3]; on recombinant Aurora A) was not above 100 nM in each case.

On to `Cc1cc(Nc2cc(N3CCN(C4CCN(C)CC4)CC3)nc(/C=C/c3ccccc3)n2)n[nH]1` [Compound 4, (E)-N-(5-methyl-1H-pyrazol-3-yl)-6-(4-(1-methylpiperidin-4-yl)piperazin-1-yl)-2-styrylpyrimidin-4-amine], for which the IC50 (in assay [1]; in assay [2]; in assay [3]; at recombinant Aurora A) was not above 100 nM throughout.

`Cc1cc(Nc2cc(N3CCN(c4ccccc4)CC3)nc(/C=C/c3ccccc3)n2)n[nH]1` [Compound 8, (E)-N-(5-methyl-1H-pyrazol-3-yl)-6-(4-phenylpiperazin-1-yl)-2-styrylpyrimidin-4-amine]: in assay [3], the half-inhibitory concentration (IC50) was not above 100 nM.

For the compound `Cc1cc(Nc2cc(N3CCN(C4CCCCC4)CC3)nc(/C=C/c3ccccc3)n2)n[nH]1` [Compound 9, (E)-6-(4-cyclohexylpiperazin-1-yl)-N-(5-methyl-1H-pyrazol-3-yl)-2-styrylpyrimidin-4-amine], the IC50 (in assay [1]; in assay [2]; in assay [3]; at recombinant Aurora A) was not above 100 nM in each case.

In the case of `Cc1cc(Nc2cc(N3CCN(c4ccc(C#N)cc4)CC3)nc(/C=C/c3ccccc3)n2)n[nH]1` [Compound 10, (E)-4-(4-(6-(5-methyl-1H-pyrazol-3-ylamino)-2-styrylpyrimidin-4-yl)piperazin-1-yl)benzonitrile], the IC50 in assay [3] is not above 100 nM.

Turning to `Cc1cc(Nc2cc(N3CCC(O)(c4ccc(Cl)cc4)CC3)nc(/C=C/c3ccccc3)n2)n[nH]1` [Compound 11, (E)-4-(4-chlorophenyl)-1-(6-(5-methyl-1H-pyrazol-3-ylamino)-2-styrylpyrimidin-4-yl)piperidin-4-ol], the 50% inhibitory concentration (IC50) in assay [3] was not above 100 nM.

For `Cc1cc(Nc2cc(N3CCN(c4ccc([N+](=O)[O-])cc4)CC3)nc(/C=C/c3ccccc3)n2)n[nH]1` [Compound 12, (E)-N-(5-methyl-1H-pyrazol-3-yl)-6-(4-(4-nitrophenyl)piperazin-1-yl)-2-styrylpyrimidin-4-amine], the IC50 in assay [2] and in assay [3] was not above 100 nM throughout.

As to `Cc1cc(Nc2cc(N3CCN(CCN4CCOCC4)CC3)nc(/C=C/c3ccccc3)n2)n[nH]1` [Compound 13, (E)-N-(5-methyl-1H-pyrazol-3-yl)-6-(4-(2-morpholinoethyl)piperazin-1-yl)-2-styrylpyrimidin-4-amine], the IC50 (in assay [1]; in assay [2]; in assay [3]; on recombinant Aurora A) was not above 100 nM each time.

Regarding `Cc1cc(Nc2cc(N3CCN(c4ccccn4)CC3)nc(/C=C/c3ccccc3)n2)n[nH]1` [Compound 14, (E)-N-(5-methyl-1H-pyrazol-3-yl)-6-(4-(pyridin-2-yl)piperazin-1-yl)-2-styrylpyrimidin-4-amine], the IC50 (in assay [3]; at recombinant Aurora A) was not above 100 nM each time.

Turning to `Cc1cc(Nc2cc(N3CC(N4CCOCC4)C3)nc(/C=C/c3ccccc3)n2)n[nH]1` [Compound 15, (E)-N-(5-methyl-1H-pyrazol-3-yl)-6-(3-morpholinoazetidin-1-yl)-2-styrylpyrimidin-4-amine], the IC50 (in assay [1]; in assay [2]; in assay [3]; at recombinant Aurora A) was not above 100 nM in each case.

`Cc1cc(Nc2cc(N3CCC(O)(Cc4ccccc4)CC3)nc(/C=C/c3ccccc3)n2)n[nH]1` [Compound 16]: the IC50 (in assay [3]; at recombinant Aurora A) was not above 100 nM in each case.

Take `Cc1cc(Nc2cc(N3CC(N4CCCCC4)C3)nc(/C=C/c3ccccc3)n2)n[nH]1` [Compound 18, (E)-N-(5-methyl-1H-pyrazol-3-yl)-6-(3-(piperidin-1-yl)azetidin-1-yl)-2-styrylpyrimidin-4-amine]: the IC50 (in assay [1]; in assay [2]; in assay [3]; at recombinant Aurora A) was not above 100 nM throughout.
